ChEMBL document CHEMBL4477172, “Bougainvinones A-H, Peltogynoids from the Stem Bark of Purple Bougainvillea spectabilis and Their Cytotoxic Activity” (J Nat Prod, 2016)

Legend:
Type in all cases: functional, cell-based
KB = assay: Cytotoxicity against human KB cells after 48 hrs by MTT assay
HeLa S3 = assay: Cytotoxicity against human HeLaS3 cells after 48 hrs by MTT assay; settings: HeLa S3, 48 h
HepG2 = assay: Cytotoxicity against human HepG2 cells after 48 hrs by MTT assay; settings: HepG2, 48 h
MCF7 = assay: Cytotoxicity against human MCF7 cells after 48 hrs by MTT assay; settings: MCF7, 48 h
HT-29 = assay: Cytotoxicity against human HT-29 cells after 48 hrs by MTT assay; settings: HT-29, 48 h

SMILES | IC50 (KB) | IC50 (HeLa S3) | IC50 (HepG2) | IC50 (MCF7) | IC50 (HT-29)
COc1ccc2c(c1)COc1c-2oc2c(C)c(O)c(C)c(OC)c2c1=O | > 10 µM | > 10 µM | > 10 µM | > 10 µM | > 10 µM
COc1ccc2c(c1)COc1c-2oc2c(C)c(O)c(C)c(O)c2c1=O | 8.1 µM | 8.4 µM | 7.4 µM | 9.7 µM | 8.8 µM
COc1c(C)c(O)c(C)c2oc3c(c(=O)c12)OCc1ccccc1-3 | > 10 µM | > 10 µM | > 10 µM | > 10 µM | > 10 µM
COc1c(C)c(OC)c2c(=O)c3c(oc2c1C)-c1ccccc1CO3 | > 10 µM | > 10 µM | > 10 µM | > 10 µM | > 10 µM
Cc1c(O)c(C)c2oc3c(c(=O)c2c1O)OCc1ccccc1-3 | > 10 µM | > 10 µM | > 10 µM | > 10 µM | > 10 µM
COc1c(C)c(OC)c2c(=O)c3c(oc2c1C)-c1c(O)cccc1CO3 | > 10 µM | > 10 µM | > 10 µM | > 10 µM | > 10 µM
COc1c(C)c(O)c2c(=O)c3c(oc2c1C)-c1c(O)cccc1CO3 | 6.6 µM | > 10 µM | > 10 µM | > 10 µM | > 10 µM
Cc1c(O)c(C)c2oc3c(c(=O)c2c1O)OCc1cccc(O)c1-3 | 9 µM | > 10 µM | > 10 µM | > 10 µM | > 10 µM
COc1cccc2c1C(=O)c1c(O)c3c(c(O)c1C2=O)C[C@@](O)(C(=O)CO)C[C@@H]3O[C@H]1C[C@H](N)[C@H](O)[C@H](C)O1 [DOXORUBICIN] | 0.09 µM | – | 1.54 µM | – | 0.26 µM
